These results are taken from US10525073B2, “Method for improving kidney and/or heart function in patients with kidney disease” (MacKay Memorial Hospital, priority 2015, dated 2020).

Holding throughout (assay type): in vivo, Sprague Dawley rats
In test [1] the test system is CKD rats. Nature of the test: Kidney fibrosis in kidney samples of CKD rats. Here is the method: Sprague Dawley rats (7 weeks old) were kept in pathogen-free environment under 12:12 light-dark cycle with food and water provided ad libitum, ambient temperature and relative humidity were respectively set at 24±2° C. and 50±20%. All procedures involving animal studies of the present disclosure comply with the “Guideline for the Care and Use of Laboratory Animals” issued by The Chinese-Taipei Society of Laboratory Animal Sciences. SD rats (about 10 weeks old) scheduled to undergo 5/6 nephrectomy or sham surgery were anesthetized by Zoletil 50/Xylazine (6 mg/1.3 mg/Kg, i.p.). Then, the left kidney was exposed, and the upper and lower poles were tied with a suture line, followed by right nephrectomy. The peritoneum and skin were then sutured, and the animals were returned to their individual cages. For animals underwent sham surgery, the left kidney was exposed in similar manner, but was then placed back into the abdominal cavity without further treatment, peritoneum and skin were then sutured. Two weeks after sham or 5/6 nephrectomy surgery, the animals were subjected to a 24-hour urine collection and non-invasive tail blood pressure measurement every 4 weeks. Four weeks after the surgery, rats underwent 5/6 nephrectomy or shame surgery were randomly assigned into two groups, i.e., the control and the telbivudine groups, in which the control group received saline treatment, and rats in the telbivudine group received telbivudine (10 mg/mL/Kg) treatment for 8 or 12 weeks. […] Blood and urine samples were respectively collected on designated days and analyzed for the levels of blood urine nitrogen (BUN), serum creatine (CR), and hepatic enzymes (i.e., alanine aminotransferase (ALT) and aspartate aminotransferase (AST)). Heart function was determined by monitoring the changes in diastolic parameter-Tissue Velocity Imaging ([…] ratio, and the strain in cardia muscle (C_strain), left ventrical mass ([…]). Animals were sacrificed after the experiments were finished, and kidney biopsy samples were obtained.

Test [2] deals with IL-6 and COL-1-A1 in heart tissue of CKD rats. In words: Quantitative RT-PCR of IL-6 and COL-1-A1 in heart tissue of CKD rats. As for the experimental part: (§1) SD rats (about 10 weeks old) scheduled to undergo 5/6 nephrectomy or sham surgery were anesthetized by Zoletil 50/Xylazine (6 mg/1.3 mg/Kg, i.p.). Then, the left kidney was exposed, and the upper and lower poles were tied with a suture line, followed by right nephrectomy. The peritoneum and skin were then sutured, and the animals were returned to their individual cages. […] Two weeks after sham or 5/6 nephrectomy surgery, the animals were subjected to a 24-hour urine collection and non-invasive tail blood pressure measurement every 4 weeks. […]
Total RNA was extracted from fresh frozen renal and heart tissues using the Trizol Reagent (Life Technologies), according to the manufacturer protocol. […] The concentration and purity of RNA were determined by Nanodrop Spectrophotometer (Thermo Scientific). […]
5/6 nephrectomy is a procedure in which one kidney of a test animal is removed and 2/3 of the remaining kidney is ablated, thereby mimics the progressive renal failure after loss of renal mass in humans. […] Blood and urine samples were respectively collected on designated days and analyzed for the levels of blood urine nitrogen (BUN), serum creatine (CR), and hepatic enzymes (i.e., alanine aminotransferase (ALT) and aspartate aminotransferase (AST)). […]

Test [3] relates to IL-6, TGF-β, TIMP1 and COL-1-A1 in kidney tissue of CKD rats. Nature of the test: Western blot of inflammatory proteins in kidney tissue of CKD rats. As for the experimental part:
SD rats (about 10 weeks old) scheduled to undergo 5/6 nephrectomy or sham surgery were anesthetized by Zoletil 50/Xylazine (6 mg/1.3 mg/Kg, i.p.). Then, the left kidney was exposed, and the upper and lower poles were tied with a suture line, followed by right nephrectomy. The peritoneum and skin were then sutured, and the animals were returned to their individual cages. […] Two weeks after sham or 5/6 nephrectomy surgery, the animals were subjected to a 24-hour urine collection and non-invasive tail blood pressure measurement every 4 weeks. Four weeks after the surgery, rats underwent 5/6 nephrectomy or shame surgery were randomly assigned into two groups, i.e., the control and the telbivudine groups, in which the control group received saline treatment, and rats in the telbivudine group received telbivudine (10 mg/mL/Kg) treatment for 8 or 12 weeks. Animals were then sacrificed, and kidney and heart biopsy samples were obtained.
For protein identification, 30 μg nuclear extracted protein was loaded in each lane of the SDS-PAGE gel (8%) and separated by electrophoresis. The separated proteins were then electro-transferred to polyvinylidene fluoride (PVDF) membranes (GE Healthcare Bio-Sciences, Little Chalfont, UK), and blocked with 5% fat-free skim milk in TRIS-buffered saline containing 0.01% Tween-20 for 60 min at room temperature. The membrane was then incubated with rabbit polyclonalanti-IL-6, TGF-β, TIMP-1 and COL1-1 (diluted 1:1000 in PBS/5% skim milk; Novus. Biologicals) antibodies overnight at 4, respectively. HRP conjugated anti-rabbit IgG (Promega) was then used as secondary antibody. Immunoreactive protein was visualized by the chemiluminescence protocol (ECL, GE HealthcareBio-Sciences). Anti-actin rabbit polyclonal antibody (1:1000; Sigma-Aldrich) was used for calibration.
(§2) 5/6 nephrectomy is a procedure in which one kidney of a test animal is removed and 2/3 of the remaining kidney is ablated, thereby mimics the progressive renal failure after loss of renal mass in humans. Briefly, approximately 50% of the remaining kidney of the rat was removed by polar excision 1-2 weeks after uni-nephrectomy. Then, the animals were randomly assigned to two groups, the telbivudine group and the control group. […] Blood and urine samples were respectively collected on designated days and analyzed for the levels of blood urine nitrogen (BUN), serum creatine (CR), and hepatic enzymes (i.e., alanine aminotransferase (ALT) and aspartate aminotransferase (AST)). Heart function was determined by monitoring the changes in diastolic parameter—Tissue Velocity Imaging (TVI_V), E/A ratio, and the strain in cardia muscle (C_strain), left ventrical mass (LVMASS). […]
A general note: In western blotting, separated proteins are transferred to a membrane and probed.

Test [4] has as its system CKD rats. Nature of the test: Heart fibrosis in CKD rats. The settings on record: heart tissue of CKD rats, telbivudine-treated vs untreated (FIG. 5). As for the experimental part: as §1
as §2, with “humans.” for “humans. Briefly, approximately 50% of the remaining kidney of the rat was removed by polar excision 1-2 weeks after uni-nephrectomy. Then, the animals were randomly assigned to two groups, the telbivudine group and the control group.”

`Cc1cn([C@@H]2C[C@@H](O)[C@H](CO)O2)c(=O)[nH]c1=O` [telbivudine]: the “decrease of extent of kidney fibrosis” value in the test on CKD rats [1] (telbivudine treatment for 8 weeks (FIG. 2 panel D)) is reported as “about 62.4%”. In the test with CKD rats [1] (telbivudine treatment for 12 weeks (FIG. 2 panel D)), the “decrease of extent of kidney fibrosis” value is around 79.2%. Moreover, the “extent of kidney fibrosis (photographs)” value in the test with CKD rats [1] (telbivudine-treated vs untreated (FIG. 2 panel B vs C)) was “significantly reduced”. Moreover, in test [2], the “mRNA level of COL-1-A1” value is given as “markedly reduced” and the “mRNA level of IL-6” value is “markedly reduced”. Moreover, in test [3], the “protein level of COL-1-A1” value is reported as “reduced”, the “protein level of IL-6” value is given as “reduced”, the “protein level of TGF-β” value is “reduced” and the “protein level of TIMP1” value is “reduced”. Moreover, the “extent of fibrotic tissues in heart” value in the test on CKD rats [4] was “markedly reduced”.
